Test system: human tumor cell lines U2-OS, HeLa, Malme-3M, PC-3 and HEK293
Assay: Relative cell viability (percent confluency) during incubation with spermidine
Assay type: cell-based
Details: spermidine 22 μM to 550 μM

## NCCCCNCCCN [spermidine, Spermidine]
SSAT non-expressing cell lines (U2-OS and HeLa)
  relative cell viability, expressed as percent confluency: highest
SSAT over-expressing cell lines (Malme-M3 and PC-3)
  relative cell viability, expressed as percent confluency: lowest

Source: patent publication US20160017054A1, “Spermidine/Spermine N1 - Acetyltransferase Antibodies As Anti-Cancer Drug Compounds” (BIOMARK TECHNOLOGIES INC., priority 2013, published 2016)
